Reference: patent publication US20240350448A1, “DICHLOROACETIC ACID CONJUGATING DIPHENYL ETHANE COMPOUND, AND PREPARATION METHOD AND APPLICATION THEREOF” (SHANGHAI ECUSTBIOMEDICINECOMPANY LTD., priority 2021, published 2024)
Like-named read-outs stand apart in the source and are kept apart here.

Experiments:
[1] = test system: HepG2 cell strain; assay: In-vitro inhibitory activity against proliferation of tumor cells (CCK8, inhibition rate); assay type: cell-based, human; details: for inhibition at 0.1 µM / inhibition at 1 µM / inhibition at 10 µM: Homo sapiens, 72 hours
Experimental: (§1) Take cells in logarithmic growth phase for experiments. Digest and count the cells, then make them into a cell suspension in 1×10^5 cells/mL, next seed the cell suspension in a 96-hole plate (100 μL per hole), then place the plate in a 5% CO2 incubator at 37° C. to be incubated for 24 hours. Add a subject with a corresponding concentration into each hole, and concurrently set up a negative control group and a blank group, each of which has 3 holes. After having placed the plate in the incubator for 72 hours, observe the morphologies of cells in each group under a microscope, then add a 10 μL CCK8 solution to each hole, and continue incubating the cells in the incubator for 4 h. Measure the absorbance value at 450 nm, and calculate the inhibition rate of cell proliferation; if P<0.05, the results have statistical significance.

[2] = test system: MCF-7; assay: CCK-8 anti-tumor activity, IC50; assay type: cell-based, human; details: for IC50: Homo sapiens, MCF7, MCF-7, 72 hours
Experimental: as §1, with “hours, measure” for “h. Measure”, “nm. In the test, take cells with 8 concentration gradients respectively, then measure” for “nm, and calculate”, “corresponding to each concentration. Use the GraphPad Prism 5.0 statistical software to treat data, use the t-test software to make a comparison between two groups, and use the One-way Anova (Dunnett) software to make a comparison among multiple groups.” for “of cell proliferation;”, “significance, and then calculate the IC50 value.” for “significance.”

[3] = test system: SGC7901; assay: CCK-8 anti-tumor activity, IC50; assay type: cell-based, human; details: for IC50: Homo sapiens, SGC-7901, SGC7901, 72 hours
Experimental: as §1, with “hours, measure” for “h. Measure”, “nm. In the test, take cells with 8 concentration gradients respectively, then measure” for “nm, and calculate”, “corresponding to each concentration. Use the GraphPad Prism 5.0 statistical software to treat data, use the t-test software to make a comparison between two groups, and use the One-way Anova (Dunnett) software to make a comparison among multiple groups.” for “of cell proliferation;”, “significance, and then calculate the IC50 value.” for “significance.”

[4] = test system: Hela; assay: CCK-8 anti-tumor activity, IC50; assay type: cell-based; details: Homo sapiens
Experimental: as §1, with “hours, measure” for “h. Measure”, “nm. In the test, take cells with 8 concentration gradients respectively, then measure” for “nm, and calculate”, “corresponding to each concentration. Use the GraphPad Prism 5.0 statistical software to treat data, use the t-test software to make a comparison between two groups, and use the One-way Anova (Dunnett) software to make a comparison among multiple groups.” for “of cell proliferation;”, “significance, and then calculate the IC50 value.” for “significance.”

[5] = test system: HepG2; assay: CCK-8 anti-tumor activity, IC50; assay type: cell-based; details: Homo sapiens
Experimental: as §1, with “hours, measure” for “h. Measure”, “nm. In the test, take cells with 8 concentration gradients respectively, then measure” for “nm, and calculate”, “corresponding to each concentration. Use the GraphPad Prism 5.0 statistical software to treat data, use the t-test software to make a comparison between two groups, and use the One-way Anova (Dunnett) software to make a comparison among multiple groups.” for “of cell proliferation;”, “significance, and then calculate the IC50 value.” for “significance.”

[6] = test system: SW480; assay: CCK-8 anti-tumor activity, IC50; assay type: cell-based; details: Homo sapiens, 72 hours
Experimental: as §1, with “hours, measure” for “h. Measure”, “nm. In the test, take cells with 8 concentration gradients respectively, then measure” for “nm, and calculate”, “corresponding to each concentration. Use the GraphPad Prism 5.0 statistical software to treat data, use the t-test software to make a comparison between two groups, and use the One-way Anova (Dunnett) software to make a comparison among multiple groups.” for “of cell proliferation;”, “significance, and then calculate the IC50 value.” for “significance.”

[7] = test system: human hepatoma cell HepG2 xenotransplantation tumor; assay: Gavage administration, inhibition of xenografted tumors of tumor-bearing nude mice; assay type: in vivo; details: 14 times; for Tumor weight: day 15; for Inhibition rate(%): tumor weight vs model group
Excerpt: Inoculate the human hepatoma cell strain HepG2 subcutaneously at an armpit of a nude mouse, as to establish a human hepatoma cell HepG2 xenotransplantation tumor model. Take the cells HepG2 in logarithmic growth phase, under sterile conditions, inoculate the cells subcutaneously at right armpits of 55 nude mice. Measure the diameter of the xenograft tumors by a vernier caliper, when the tumors grow to about 100 mm^3, choose 48 tumor-bearing nude mice having an uniform tumor size in a good growth status, then randomly divide them into 8 groups, each of which has 6 mice, namely a model group, a 7a low-dosage group (50 mg/kg), a 7a medium-dosage group (100 mg/kg), a 7a high-dosage group (150 mg/kg), and a sorafenib group (50 mg/kg). Share an isovolumic solvent among the mice in the model group through gavage, administer drugs through gavage once a day. Administer drugs in the 7a low-dosage group, the 7a medium-dosage group, and the 7a high-dosage group once a day at 50 mg/kg, 100 mg/kg, and 150 mg/kg, respectively, to reach 14 times administration in total. Administer drugs in the sorafenib group once a day at 50 mg/kg, to reach 14 times administration in total. Dynamically observe the anti-tumor effect of the subjects by adopting the method of measuring tumor diameters. Measure the tumor diameter on alternate days, while weigh the body weight of nude mice. On the 15th day, kill the mice, then pick away tumor lumps surgically and weigh them, and preserve the tumor tissue in a liquid nitrogen tank, next calculate the tumor inhibition rate (%). Tumor inhibition rate (%)= (tumor weight in the model group-tumor weight in the administration group)/tumor weight in the model group×100%.

[8] = test system: A549; assay: CCK-8 anti-tumor activity, IC50; assay type: cell-based; details: Homo sapiens, 72 hours
Experimental: as §1, with “hours, measure” for “h. Measure”, “nm. In the test, take cells with 8 concentration gradients respectively, then measure” for “nm, and calculate”, “corresponding to each concentration. Use the GraphPad Prism 5.0 statistical software to treat data, use the t-test software to make a comparison between two groups, and use the One-way Anova (Dunnett) software to make a comparison among multiple groups.” for “of cell proliferation;”, “significance, and then calculate the IC50 value.” for “significance.”

[9] = read-out: IC50 value against the Hela cells

Question: Which “inhibitory activity against HepG2 cells (in words)” value [1] does the source give for `CCOc1ccc(CCc2cc(OC)c(OC)c(OC)c2)cc1OC(=O)C(Cl)Cl` [7b] here?
Answer: better than that of erianin

Question: What about the inhibition at 0.1 µM [1] of the same molecule?
Answer: 35.7 ± 2.42%

Question: What about the inhibition at 1 µM [1] of the same molecule?
Answer: 48.4 ± 9.88%

Question: What about the inhibition at 10 µM [1] of the same molecule?
Answer: 73.7 ± 4.7%

Question: `COc1ccc(CCc2cc(OC)c(OC)c(OC)c2)cc1OC(=O)CCNC(=O)C(Cl)Cl` [8b, 2-methoxy-5-(3,4,5-trimethoxyphenyletyl) phenyl3-(2,2-dichloroacetamide) propionate] was tested. Which inhibition at 0.1 µM [1] did it give?
Answer: 37.5 ± 4.49%

Question: What about the inhibition at 1 µM [1] of the same molecule?
Answer: 55.8 ± 4.37%

Question: And the inhibition at 10 µM [1]?
Answer: 74.2 ± 2.41%

Question: How did the inhibition at 0.1 µM [1] turn out when `COc1ccc(CCc2cc(OC)c(OC)c(OC)c2)cc1OC(=O)CCCNC(=O)C(Cl)Cl` [8c, 2-methoxy-5-(3,4,5-trimethoxyphenylethy) phenyl4-(2,2-dichloroacetamide) butyrate] was run?
Answer: 36.1 ± 11.7%

Question: And the inhibition at 1 µM [1]?
Answer: 68.7 ± 0.72%

Question: What about the inhibition at 10 µM [1] of the same molecule?
Answer: 89.27 ± 0.66%

Question: Which results are given for `COc1ccc(CCc2cc(OC)c(OC)c(OC)c2)cc1OC(=O)CCCCCNC(=O)C(Cl)Cl` [8d, 2-methoxy-5-(3,4,5-trimethoxyphenylethyl) phenyl6-(2,2-dichloroacetamide) hexanoate]?
Answer: IC50 [2]: 174 nM; inhibitory activity compared with erianin (in words) ([2]; human breast cancer MCF-7 cell strains): superior to erianin; IC50 [3]: 103 nM; inhibitory activity compared with erianin (in words) ([3]; human gastric cancer SGC7901 cell strains): superior to erianin; IC50 ([4]; 72 hours, read-out: IC50): 288 nM; IC50 [4, 9]: 288 nM; IC50 ([5]; 72 hours, read-out: IC50): 135 nM; IC50 [6]: 326 nM; inhibitory activity against HepG2 cells (in words) [1]: good inhibitory activity; inhibition at 0.1 µM [1]: 50.9 ± 4.44%; inhibition at 1 µM [1]: 73 ± 3.1%; inhibition at 10 µM [1]: 90.6 ± 2.33%

Question: `COc1ccc(CCc2cc(OC)c(OC)c(OC)c2)cc1OC(=O)CNC(=O)C(Cl)Cl` [8a, 2-methoxy-5-(3,4,5-trimethoxyphenylethyl) phenyl3-(2,2-dichloroacetamide) acetate] was tested. Which inhibition at 0.1 µM [1] did it give?
Answer: 18.5 ± 1.16%

Question: What about the inhibition at 1 µM [1] of the same molecule?
Answer: 30 ± 2.03%

Question: And the inhibition at 10 µM [1]?
Answer: 45.6 ± 2.53%

Question: `CNC(=O)c1cc(Oc2ccc(NC(=O)Nc3ccc(Cl)c(C(F)(F)F)c3)cc2)ccn1` [sorafenib, reference compound] was tested. Which “Tumor weight” value ([7]; 50 mg/kg gavage once a day) did it give?
Answer: 0.581 ± 0.089 g

Question: And the “Inhibition rate(%)” value ([7]; 50 mg/kg gavage once a day)?
Answer: 59.3%

Question: `COc1ccc(CCc2cc(OC)c(OC)c(OC)c2)cc1OC(=O)C(Cl)Cl` [7a, 2-methoxy-5-(3,4,5-trimethoxyphenylethyl) phenyl 2,2-dichloroacetate] was tested. Which IC50 [2] did it give?
Answer: 656 nM

Question: What about the IC50 [3] of the same molecule?
Answer: 469 nM

Question: What about the IC50 [8] of the same molecule?
Answer: 726 nM

Question: What about the IC50 ([4]; 72 hours, read-out: IC50) of the same molecule?
Answer: 516 nM

Question: What about the IC50 [4, 9] of the same molecule?
Answer: 516 nM

Question: What about the IC50 ([5]; 72 hours, read-out: IC50) of the same molecule?
Answer: 48.9 nM

Question: What about the IC50 ([5]; read-out: IC50 value against the HepG2 cells) of the same molecule?
Answer: 48.9 nM

Question: What about the IC50 [6] of the same molecule?
Answer: 940 nM

Question: And the “inhibitory activity against HepG2 cells (in words)” value [1]?
Answer: good inhibitory activity

Question: And the inhibition at 1 µM [1]?
Answer: 94.43 ± 0.89%

Question: What about the inhibition at 10 µM [1] of the same molecule?
Answer: 89.3 ± 1.5%

Question: And the “Tumor weight” value ([7]; 50 mg/kg gavage once a day)?
Answer: 0.569 ± 0.103 g

Question: What about the “Inhibition rate(%)” value ([7]; 50 mg/kg gavage once a day) of the same molecule?
Answer: 62.0%

Question: And the “Tumor weight” value ([7]; 100 mg/kg gavage once a day)?
Answer: 0.479 ± 0.100 g

Question: What about the “Inhibition rate(%)” value ([7]; 100 mg/kg gavage once a day) of the same molecule?
Answer: 72.4%

Question: And the “Tumor weight” value ([7]; 150 mg/kg gavage once a day)?
Answer: 0.314 ± 0.076 g

Question: And the “Inhibition rate(%)” value ([7]; 150 mg/kg gavage once a day)?
Answer: 86.9%
